Key:
eczema = assay: Earlier use of urea on eczema symptoms of type 2 diabetic patient; format: in vivo, human; details: high blood-sugar level, 16 years ago
psoriasis = assay: Comparison of performance of OTCs, zinc oxide and copper lactate on silvery patches L6-L8; format: in vivo, human
Excerpt: As mentioned above, the presence and growth of L6, L7 and L8 lesions gave me an opportunity to compare the performance of my invention against the readily available OTCs. As mentioned earlier, coal tar, sea salts and several combinations of acids are used for treatment of psoriasis and eczema.
From June 1966 to March 1996, The U. S. Department of Interior (DOI) employed me as a research engineer. During the course of my employment with DOI, I had conducted research in more than 100 coal and salt mines. I have a sound knowledge of the properties of coal and salts. The following comments are based on my experimentations and my in-depth knowledge of the physical and chemical properties of these minerals. Furthermore, based on my own knowledge and past experience with the OTCs, I became suspicious of the validity of the claims made by the manufactures of OTCs containing coal tar and sea salts. Therefore, I designed a simple experimental procedure to compare effectiveness of readily available OTCs to treat psoriasis. Experimental procedure: Before each topical application, each of the three silvery patches was washed with warm soapy water and towel dried. Each OTC product was gently massaged onto all three silvery patches three times daily. Topical applications were made in accordance with the drug manufacturer's recommendations. At the end of four hours, physical observations were made. Silvery patches were again washed and dried and medication was applied again. Each product was tested for a period of four days. After completion of one test series and start of another, silvery patches were left alone for a period of four days to avoid carryover affects from one product to another.
Immune suppressing medications such as Elidel and Protopic and all other prescription drugs known to potentially contribute to cancer were excluded from this test series. Prescription phototherapy and systemics having different course of action and generally, they are not recommended for mild cases of psoriasis. Therefore, these medications were beyond the scope of this study.
Therefore, based on prior knowledge, for extension of this study, an ointment containing 40% zinc oxide was selected for testing.
8. Copper Lactate: Even though during this testing phase, no bleeding points were developed, it was still decided to explore the impact of copper lactate alone on psoriatic lesions. Copper lactate for this test series was produced by reacting yogurt in a copper container rather than a brass utensil.

[1] = after ten days of daily applications

NC(N)=O [Urea]
treatment of dry, flaky, cracked, and bleeding symptoms of eczema (eczema): totally ineffective

CC(O)C(=O)[O-].CC(O)C(=O)[O-].[Cu+2] (stereo not drawn) [copper lactate]
reduction in psoriatic lesions (psoriasis; after seven days of topical applications): 20%
red thickened skin of the lesion whose silvery patch came off (psoriasis; [1]): completely disappeared
reduction in size of remaining two silvery lesions (psoriasis; [1]): 20%
silvery patch of one of the psoriatic lesions (psoriasis; [1]): flaked off
swelling (psoriasis; after the first day of applications, no bleeding points): significant reduction
pain and swelling (psoriasis; after three days of applications): completely gone
silvery scales (psoriasis; after three days of topical application): fell off
silvery patches on the remaining two lesions (psoriasis; further topical applications): have not eliminated

— US20070031509A1, “Breakthrough to cure psoriasis, psoriatic arthritis and treatment of other unrelated skin disorders, and external rectal and genital itching” (priority 2005, published 2007)
